Like-named read-outs stand apart in the source and are kept apart here.
Tests used:
HCCC9810 = assay: In vitro human tumor cell line cytotoxicity assay; format: cell-based; details: for IC50: Homo sapiens
PLCPRF5 = assay: In vitro human tumor cell line cytotoxicity assay; format: cell-based; details: for IC50: Homo sapiens
Vcap = assay: In vitro human tumor cell line cytotoxicity assay; format: cell-based; details: for IC50: Homo sapiens, VCaP
C3A = assay: In vitro human tumor cell line cytotoxicity assay; format: cell-based; details: for IC50: Homo sapiens
H460 cells = assay: In vitro proliferation assay, H460; format: cell-based; details: Homo sapiens, NCI-H460; 2 hrs exposure, wash, additional 70hrs, AlamarBlue; read-out: IC 50 in proliferation assay in H460 cells
Method: In vitro proliferation data on the H460 […] human tumor cell line is reported above in the compound table. IC50 values are reported in micromolar and result from exposure of compound at various concentrations for 2 hrs followed by a wash step and addition of fresh media followed by growth and cell viability staining and comparison to a media only treated control.
Specifically, exponentially growing cells were seeded at a density of 4 x 10^3 cells per well in a 96 well plate and incubated at 37°C in 5% CO2, 95% air and 100% relative humidity for 24 hours prior to addition of test compounds. Compounds were solubilized in 100% DMSO at 200 times the desired final test concentration. At the time of drug addition, compounds were further diluted to 4 times the desired final concentration with complete medium. Aliquots of 50 µl of compound at specified concentrations were added to microtiter wells already containing 150 µl of medium, resulting in the final drug concentration reported. After drug addition, the plates were incubated for an additional 2 hours at 37°C, 5% CO2, 95% air, and 100% relative humidity, then the drug was washed off and fresh medium was added and the plates were incubated for addition 70hrs at 37 °C, 5% CO2, 95% air and 100% relative humidity. At the end of this incubation, the viable cells were quantified using the AlamarBlue assay. The drug concentration resulting in growth inhibition of 50% (IC50) was calculated using Prism software (Irvine, CA), and the results were listed in the table.

SNU-387 = assay: In vitro human tumor cell line cytotoxicity assay; format: cell-based; details: for IC50: Homo sapiens
HepG2 = assay: In vitro human tumor cell line cytotoxicity assay; format: cell-based; details: for IC50: Homo sapiens
Recombinant human AKR1C3 = Recombinant human AKR1C3 (Homo sapiens, UniProt P42330); assay: Activation by the aldoketo reductase AKR1C3; format: biochemical; details: 5 µM, 2 mM NADPH, 37 °C, up to 120 min; FIG. 2
Chain of Recombinant human AKR1C3 (P42330 whole entry): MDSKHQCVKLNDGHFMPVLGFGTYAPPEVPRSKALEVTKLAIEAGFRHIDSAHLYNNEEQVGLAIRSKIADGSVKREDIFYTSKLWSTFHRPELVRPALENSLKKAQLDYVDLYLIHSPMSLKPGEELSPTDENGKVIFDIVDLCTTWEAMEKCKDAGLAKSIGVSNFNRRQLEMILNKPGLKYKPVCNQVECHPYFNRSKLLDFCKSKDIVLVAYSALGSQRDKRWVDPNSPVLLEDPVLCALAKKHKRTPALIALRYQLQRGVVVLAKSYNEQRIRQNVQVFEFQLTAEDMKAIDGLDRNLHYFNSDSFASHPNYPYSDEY
Method: Recombinant human AKR1C3 was diluted to 25 µg/mL in phosphate buffered saline (PBS), pH 7.4 (37 °C), containing 2 mM NADPH. TH2870 or progesterone (positive control) in 30% methanol/70% water was added to the reaction mixture at a final concentration of 5 µM and incubated at 37 °C for 120 minutes. At various times up to 120 min, 50 µL of the reaction mixture was taken and 200 µL acetonitrile containing propranolol as internal standard was added, vortex-mixed and centrifuged for 10 min. The resulting supernatant (5 µL) was injected into a LC/MS/MS for quantitation of % remaining TH 2870 and progesterone. The compounds were tested in duplicates.

LIXC012 = assay: In vitro human tumor cell line cytotoxicity assay; format: cell-based; details: for IC50: Homo sapiens
[1] = test system: A375 melanoma human tumor xenograft; assay: In vivo human tumor xenograft model, antitumor activity; set-up: species or system nude mice; details: 20mpk,qdx5x2,ip
Source text: Specific pathogen-free homozygous female nude mice (nu/nu, Charles River Laboratories) were used. Mice were given food and water ad libitum and housed in microisolator cages. Four to six week old animals were identified by microchips (Locus Technology, Manchester, MD, USA) at the time of the experiments. All animal studies were approved by the Institutional Animal Care and Use Committee at Threshold Pharmaceuticals, Inc.
All cell lines were from the American Type Culture Collection (ATCC, Rockville, MD, USA).
Cells were mixed with Matrigel (30% in H460) and 0.2 ml per mouse were subcutaneously implanted to the flank area of the animals. When tumor size reached 100-150 mm^3, mice were randomized into experimental or vehicle groups with 10 mice/group and treatment was started (Day 1). The tested compounds were formulated in 5% DMSO in D5W. All compounds were given by IP, QDx5/wk (5 days on, 2 days off) as one cycle, for a total of 2 cycles. Tumor growth and body weight were measured twice a week. Tumor volume was calculated as (length x width^2)/2. Drug efficacy was assessed as Tumor Growth Inhibition (TGI) and Tumor Growth Delay (TGD). TGI was defined as (1-ΔT/ΔC) x 100, where ΔT/ΔC presented the ratio of the change in mean (or median, if variation within the group was relatively large) tumor volume of the treated group and of the control group. TGD was calculated as the extra days for the treated tumor to reach 500mm^3 as compared to the control group. Animals were culled when individual tumor size reached over 2000mm^3 or mean tumor volume exceeded 1000mm^3 in the group. Data are expressed as the mean ± SEM. One-way analysis of variance with Dunnett post comparison test (GraphPad Prism 4) or two-tailed student's t-test were used for analysis. A P level < 0.05 was considered statistically significant.
This study employed an A375 melanoma human tumor xenograft model and the compounds provided herein were compared to thiotepa and the approved anti melanoma drug, Abraxane. […] Mpk refers to mg/kg.

CC(OP(=O)(N1CC1)N1CC1)c1ccc([N+](=O)[O-])c(Oc2cccc(C(=O)N(C)C)c2)c1 (racemic) [TH 2870, (R,S)-1-(3-(3-N,N-dimethylaminocarbonyl)phenoxyl-4-nitrophenyl)-1-ethyl-N,N'-bis(ethylene)phosphoramidate]
Max Inhibition% (HCCC9810): 95.4% | Min Inhibition% (HCCC9810): -2.6% | IC50 (HCCC9810; read-out: AbsIC50): 0.0294 µM | IC50 (HCCC9810; read-out: RelIC50): 0.0292 µM | Max Inhibition% (PLCPRF5): 53.3% | Min Inhibition% (PLCPRF5): -1.7% | IC50 (PLCPRF5; PLC-PRF-5, read-out: AbsIC50): 0.575 µM | IC50 (PLCPRF5; PLC-PRF-5, read-out: RelIC50): 0.475 µM | IC50 (Vcap; read-out: AbsIC50): 0.0152 µM | IC50 (Vcap; read-out: RelIC50): 0.0227 µM | Max Inhibition% (Vcap; Vcap): 100.2% | Min Inhibition% (Vcap; Vcap): -3.4% | Max Inhibition% (C3A): 98.1% | Min Inhibition% (C3A): 8.1% | IC50 (C3A; read-out: AbsIC50): 0.0062 µM | IC50 (C3A; read-out: RelIC50): 0.0071 µM | IC50 (H460 cells): 0.005 µM | Max Inhibition% (SNU-387): 102.8% | Min Inhibition% (SNU-387): 1.7% | IC50 (SNU-387; read-out: AbsIC50): 0.034 µM | IC50 (SNU-387; read-out: RelIC50): 0.0422 µM | Max Inhibition% (HepG2): 98.9% | Min Inhibition% (HepG2): 3.3% | IC50 (HepG2; read-out: AbsIC50): 0.0064 µM | IC50 (HepG2; read-out: RelIC50): 0.0055 µM | disappearance of compound (% remaining) in the presence of AKR1C3 (Recombinant human AKR1C3): rapid disappearance | Max Inhibition% (LIXC012): 87.1% | Min Inhibition% (LIXC012): 6.6% | IC50 (LIXC012; read-out: AbsIC50): 0.0187 µM | IC50 (LIXC012; read-out: RelIC50): 0.0274 µM | TGD500, Days (vs. vehicle) [1]: >13 days | TGI [1]: 98.0%

Reference: patent publication EP3390415B1, “(R)- AND (S)-1-(3-(3-N,N-DIMETHYLAMINOCARBONYL)PHENOXYL-4-NITROPHENYL)-1-ETHYL-N,N'-BIS (ETHYLENE)PHOSPHORAMIDATE, COMPOSITIONS AND METHODS FOR THEIR USE AND PREPARATION” (OBI PHARMA, INC., priority 2015, dated 2017)
